This assay addresses T1, human GPR119 receptor (Homo sapiens, UniProt Q8TDV5).
T1 construct: host or cells: GeneBLAzer T-Rex GPR 119 CHO-K1 DA cells (CHO-K1)
T1 sequence (Q8TDV5 1-335): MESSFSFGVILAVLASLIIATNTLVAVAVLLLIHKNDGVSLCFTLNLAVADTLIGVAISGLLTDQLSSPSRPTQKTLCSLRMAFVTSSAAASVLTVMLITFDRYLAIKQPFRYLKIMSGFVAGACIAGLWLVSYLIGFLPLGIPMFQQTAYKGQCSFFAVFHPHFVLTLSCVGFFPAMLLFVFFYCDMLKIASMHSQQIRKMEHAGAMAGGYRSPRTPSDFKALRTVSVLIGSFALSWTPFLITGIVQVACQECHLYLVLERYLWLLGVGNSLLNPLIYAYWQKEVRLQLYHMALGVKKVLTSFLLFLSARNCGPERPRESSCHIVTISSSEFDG
As to the kind of experiment: Activity test for human GPR119 receptor (GeneBLAzer T-Rex GPR 119 CHO-K1 DA cells, fluorescence reporter). The assay is classed as cell-based. The settings on record: 5 hours treatment; for activity at 0.1 µM: test compound conc. 0.1 μM; for activity at 0.1 µM / activity at 1 µM / activity at 10 µM: human GPR119 CHO-K1 reporter cells, ratio to vehicle control well, read-out: % Activation; for activity at 1 µM: test compound conc. 1 μM; for activity at 10 µM: test compound conc. 10 μM. The procedure: As a human GPR119 receptor expression cell for this test, the cell line “GeneBLAzer™ T-Rex GPR 119 CHO-K1 DA cells” that is commercially available from Invitrogen, was used. The cell was incubated in the DMEM media containing 1% dialyzed fetal bovine serum etc. The cell incubator was kept at constant temperature and constant humidity of 37° C., 5% CO2.
The human GPR119 receptor expressing cell was used to this test. Each of test compounds was added to be final concentrations of 0.1, 1, 10 μM in 96 well and tested in duplicate. A fixed amount of cell was added to each well of 96 well separately, and then treated with the test compound for 5 hours. After treatment of color development agent for 2 hours, the fluorescence value was determined with plate reader. To the luminous wavelength of control well, which was not treated with the agonist sample, but in which only a vehicle (i.e., cell) was contained, the ratio of the luminous wavelength of test well, which was treated with the agonist sample, was calculated, and then converted to obtain % value.
All the results were expressed as mean±SD, and each test groups and the control group were compared using student's t-test to adjudge the effects of each test groups.

The structures appear in SMILES notation.

For the compound `CS(=O)(=O)c1ccc(-c2ccc(OCC3CCN(CC4(C(F)(F)F)CC4)CC3)cc2)cc1` [Compound 500, 4-((4′-(methylsulfonyl)biphenyl-4-yloxy)methyl)-1-((1-(trifluoromethyl)cyclopropyl)methyl)piperidine], the activity at 0.1 µM is 214%, the activity at 1 µM was found to be 298% and the activity at 10 µM stood at 310%.

Turning to `CCC(F)(CC)CN1CCC(COc2ccc(-c3ccc(C(=O)N4CCC[C@H]4C(N)=O)c(F)c3)cc2C#N)CC1` [Compound 1000, (S)-1-(3′-cyano-4′-((1-(2-ethyl-2-fluorobutyl)piperidin-4-yl)methoxy)-3-fluorobiphenylcarbonyl)pyrrolidine-2-carboxamide], the activity at 0.1 µM was 311%, the activity at 1 µM was 367% and the activity at 10 µM was found to be 374%.

Turning to `CC(C)(F)CN1CCC(COc2ccc(-c3ccc(C(=O)N4CCC[C@@H]4CO)cc3)cc2)CC1` [Compound 555, (R)-(4′-((1-(2-fluoro-2-methylpropyl)piperidin-4-yl)methoxy)biphenyl-4-yl)(2-(hydroxymethyl)pyrrolidine-1-yl)methanone], the activity at 0.1 µM is 190%, the activity at 1 µM turned out to be 269% and the activity at 10 µM was 272%.

With `CCC(F)(CC)CN1CCC(COc2ccc(-c3ccc(C(=O)N4CCC[C@H]4C(N)=O)cc3F)cc2C#N)CC1` [Compound 1119, (S)-1-(3′-cyano-4′-((1-(2-ethyl-2-fluorobutyl)piperidin-4-yl)methoxy)-2-fluorobiphenylcarbonyl)pyrrolidine-2-carboxamide], the activity at 0.1 µM stood at 406%, the activity at 1 µM is 428% and the activity at 10 µM stood at 482%.

With `CC(C)(F)CN1CCC(COc2ccc(-c3ccc(C(=O)N4CCC[C@H]4C(N)=O)c(F)c3)c(C#N)c2)CC1` [Compound 1028], the activity at 0.1 µM worked out at 187%, the activity at 1 µM was 348% and the activity at 10 µM turned out to be 402%. Moreover, the “% Activation” value (human GPR119 receptor expressing cell, test concentrations 0.1, 1, 10 μM (concentration not given)) amounted to 402%.

On to `CC(C)(F)CN1CCC(COc2ccc(-c3ccc(C(=O)N4CCOCC4)cc3)cc2)CC1` [Compound 517, (4′-((1-(2-fluoro-2-methylpropyl)piperidin-4-yl)methoxy)biphenyl-4-yl)(morpholino)methanone], for which the activity at 0.1 µM worked out at 192%, the activity at 1 µM is 244% and the activity at 10 µM was found to be 291%.

As for `CC(C)(F)CN1CCC(COc2ccc(-c3ccc(C(=O)N4CCC[C@H]4C(N)=O)c(F)c3)cc2)CC1` [Compound 644, (S)-1-(3-fluoro-4′-((1-(2-fluoro-2-methylpropyl)piperidin-4-yl)methoxy)biphenylcarbonyl)pyrrolidine-2-carboxamide], the activity at 0.1 µM was determined as 213%, the activity at 1 µM was found to be 295% and the activity at 10 µM was determined as 294%.

Consider `CC(C)(CN1CCC(COc2ccc(-c3ccc(C(=O)N4CCC[C@@H](O)C4)cc3)cn2)CC1)C(F)(F)F` [Compound 829, (R)-(3-hydroxypiperidin-1-yl)(4-(6-((1-(3,3,3-trifluoro-2,2-dimethylpropyl)piperidin-4-yl)methoxy)pyridin-3-yl)phenyl)methanone], for which the activity at 0.1 µM amounted to 257%, the activity at 1 µM was 313% and the activity at 10 µM worked out at 303%.

`CC(C)(F)CN1CCC(COc2ccc(-c3ccc(C(=O)N4CCC(F)(F)C4)cc3)cc2)CC1` [Compound 629, (3,3-difluoropyrrolidine-1-yl)(4′-((1-(2-fluoro-2-methylpropyl)piperidin-4-yl)methoxy)biphenyl-4-yl)methanone]: the activity at 0.1 µM is 199%, the activity at 1 µM was 229% and the activity at 10 µM was determined as 269%.

As to `CN(CCO)C(=O)c1ccc(-c2ccc(OCC3CCN(CC(C)(C)F)CC3)cc2)cc1` [Compound 551, 4′-((1-(2-fluoro-2-methylpropyl)piperidin-4-yl)methoxy)-N-(2-hydroxyethyl)-N-methylbiphenyl-4-carboxamide], the activity at 0.1 µM stood at 135%, the activity at 1 µM was determined as 232% and the activity at 10 µM was determined as 288%.

Regarding `CC(=O)N1CCN(C(=O)c2ccc(-c3ccc(OCC4CCN(CC(C)(C)F)CC4)cc3)cc2)CC1` [Compound 628, 1-(4-(4′-((1-(2-fluoro-2-methylpropyl)piperidin-4-yl)methoxy)biphenylcarbonyl)piperazin-1-yl)ethanone], the activity at 0.1 µM was 138%, the activity at 1 µM came out at 210% and the activity at 10 µM was 257%.

For `NC(=O)[C@@H]1CCCN1C(=O)c1ccc(-c2cnc(OCC3CCN(CC4(C(F)(F)F)CCC4)CC3)cn2)cc1` [Compound 1009, (S)-1-(4-(5-((1-((1-(trifluoromethyl)cyclobutyl)metb.yl)piperidin-4-yl)methoxy)pyrazine-2-yl)benzoyl)pyrrolidine-2-carboxamide], the activity at 0.1 µM was 235%, the activity at 1 µM came out at 314% and the activity at 10 µM turned out to be 340%.

On to `CC(C)(F)CN1CCC(COc2ccc(-c3ccc(C(=O)N4CC[C@@H](O)C4)cc3)cc2)CC1` [Compound 553, (R)-(4′-((1-(2-fluoro-2-methylpropyl)piperidin-4-yl)methoxy)biphenyl-4-yl)(3-hydroxypyrrolidine-1-yl)methanone], for which the activity at 0.1 µM came to 149%, the activity at 1 µM was 204% and the activity at 10 µM is 253%.

Regarding `CS(=O)(=O)c1ccc(-c2ccc(OCC3CCN(CC4(C(F)(F)F)CCC4)CC3)cc2)cc1` [Compound 542, 4-((4′-(methylsulfonyl)biphenyl-4-yloxy)methyl)-1-((1-(trifluoromethyl)cyclobutyl)methyl)piperidine], the activity at 0.1 µM amounted to 256%, the activity at 1 µM was found to be 347% and the activity at 10 µM is 376%.

Consider `CC(C)(F)CN1CCC(COc2ccc(-c3ccc(C(=O)N4CC[C@H](O)C4)cc3)cc2)CC1` [Compound 554, (S)-(4′-((1-(2-fluoro-2-methylpropyl)piperidin-4-yl)methoxy)biphenyl-4-yl)(3-hydroxypyrrolidine-1-yl)methanone], for which the activity at 0.1 µM was 141%, the activity at 1 µM was 219% and the activity at 10 µM was found to be 279%.

In the case of `NC(=O)[C@H]1CCCCN1C(=O)c1ccc(-c2ccc(OCC3CCN(CC4(C(F)(F)F)CCC4)CC3)c(F)c2)cc1` [Compound 886, (R)-1-(3′-fluoro-4′-((1-((1-(trifluoromethyl)cyclobutyl)methyl)piperidin-4-yl)methoxy)biphenylcarbonyl)piperidin-2-carboxamide], the activity at 0.1 µM worked out at 164%, the activity at 1 µM was 241% and the activity at 10 µM amounted to 246%.

`O=C(c1ccc(-c2ccc(OCC3CCN(CC4(C(F)(F)F)CC4)CC3)nc2)cc1)N1CCC(CO)CC1` [Compound 587, (4-(hydroxymethyl)piperidin-1-yl)(4-(6-((1-((1-(trifluoromethyl)cyclopropyl)methyl)piperidin-4-yl)methoxy)pyridine-3-yl)phenyl)methanone]: the activity at 0.1 µM worked out at 227%, the activity at 1 µM is 288% and the activity at 10 µM was determined as 297%.

Regarding `NC(=O)[C@@H]1CCCN1C(=O)c1ccc(-c2ccc(OCC3CCN(CC4(C(F)(F)F)CCC4)CC3)c(F)c2)cc1` [Compound 837, (S)-1-(3′-fluoro-4′-((1-((1-(trifluoromethyl)cyclobutyl)methyl)piperidin-4-yl)methoxy)biphenylcarbonyl)pyrrolidine-2-carboxamide], the activity at 0.1 µM came to 251%, the activity at 1 µM stood at 296% and the activity at 10 µM was 306%.

Regarding `NC(=O)[C@@H]1CCCN1C(=O)c1ccc(-c2ccc(OCC3CCN(CC4(C(F)(F)F)CCC4)CC3)cc2)cc1` [Compound 635, (S)-1-(4′-((1-((1-(trifluoromethyl)cyclobutyl)methyl)piperidin-4-yl)methoxy)biphenylcarbonyl)pyrrolidine-2-carboxamide], the activity at 0.1 µM was found to be 265%, the activity at 1 µM was found to be 305% and the activity at 10 µM is 239%.

For the compound `CC(C)(F)CN1CCC(COc2ccc(-c3ccc(C(=O)N4CCC[C@@H]4CO)c(F)c3)cc2)CC1` [Compound 641, (R)-(3-fluoro-4′-((1-(2-fluoro-2-methylpropyl)piperidin-4-yl)methoxy)biphenyl-4-yl)(2-(hydroxymethyl)pyrrolidine-1-yl)methanone], the activity at 0.1 µM was 167%, the activity at 1 µM was 220% and the activity at 10 µM was 246%.

For the origin of these results see patent publication US9944600B2, “Piperidine derivatives for GPR119 agonist” (CHONG KUN DANG PHARMACEUTICAL CORP., priority 2012, dated 2018).
